Source: patent US5053431A, “Derivatives of chrysophanol as topoisomerase II inhibitors” (Sloan-Kettering Institute For Cancer Research, priority 1990, dated 1991)
In brackets after ≈: the same amount, converted by molar mass. Like-named read-outs stand apart in the source and are kept apart here.

Experiments:
[1] = tested on: human leukemia HL-60 cells; assay: HL-60 cell growth inhibition (72 h); type: cell-based; conditions: HL-60, 72 h, read-out: ID50, M [HL-60 cell growth (72 h)] (A)
Protocol: For cell growth inhibition studies, HL-60 cells […]) were grown in RPMI 1640 media at 37° C. in humidified 5% CO2 for 72 h. Viable cells were counted with the trypan blue exclusion method. The fractional inhibitions at four or five concentrations of compounds (in 0.2% DMSO) were analyzed with a median-effect plot (Chou, T.-C., et al., Adv. Enzyme Regul. 22:27 (1984)) by using a computer program. (Chou, J.; Chou, T.-C. Dose-Effect Analyses with Microcomputer. Quantitation of ID50, LD50, Synergism, Antagonism, Low-dose Risk, Receptor-Binding and Enzyme Kinetics; IBM-PC Series, Elsevier-Biosoft, Elsevier Scientific: Cambridge, U.K., (1986)). The median-effect concentration (ID50) was automatically determined for the x intercept of the median-effect plot. Cell growth in the absence of a compound and in the presence of DMSO was used as a control. DMSO (0.2%) alone inhibited cell growth 3.8±1.2% during the 72-h incubation period.

[2] = tested on: [^3 H]TdR incorporation into DNA in HL-60 cells; assay: Inhibition of [3H]TdR incorporation into DNA in HL-60 cells (initial 30 min); type: cell-based, human; conditions: for B/A: ratio of ID50 for TdR incorporation (B) to ID50 for cell growth (A), HL-60; for IC50: HL-60, initial 30 min exposure, read-out: ID50, M (HL-60 TdR into DNA (B))
Protocol: For precursor incorporation studies, each compound at four to six concentrations (0.2% DMSO) was preincubated with HL-60 cells (2.5×10^6 /Ml) for 15 min prior to the addition of [^3 H-methyl]TdR (1 μCi, 0.15 nmol/mL) and was incubated for 30 min. […] The incorporation of radioactivity in DNA in the absence of an analogue in the presence of DMSO was used as a control.

[3] = tested on: mouse leukemia L1210 cells; assay: Inhibition of L1210 cell growth; type: cell-based
Protocol: Preliminary biological data for inhibiting cell growth of murine L1210 leukemic cells and human acute promyelocytic leukemia cells (HL-60) during 72 h of exposure to the compounds are given in Table IV. The potencies for inhibiting [^3 H]TdR incorporation into DNA in HL-60 cells during the initial 30-min period are also given in Table IV. It is interesting to note that 1,8-di-O-methyl derivatives are uniformly devoid of activity against L1210 leukemic cells. […] The B/A ratios allow an indirect estimation of whether or not cytotoxicities exerted by these analogues are primarily due to initial inhibition of DNA synthesis. […] Whether these analogues, like m-AMSA, ellipticine, or anthracyclines, act by inhibiting DNA topoisomerase II remains to be explored. […] Our preliminary experiments indicate that the compounds arrest cells in the S and/or G2 phases of the cell cycle (unpublished results).

[4] = Table IV, L1210, 72 h exposure, read-out: ID50, M (L1210 cell growth)
[5] = Mus musculus, Table IV, L1210, 72 h exposure, read-out: ID50, M (L1210 cell growth)
[6] = Mus musculus, L1210, Table I, read-out: ID50 (the source's name)
[7] = Mus musculus, L1210, Table I, read-out: ID50 (μg/mL)
[8] = Mus musculus, L1210, Table II, antileukemic activity, read-out: L1210: ID50
[9] = Table I, read-out: ID50 (the source's name)

Molecule | B/A [2] | IC50 ([1]; Homo sapiens, 0.2% DMSO) | IC50 ([2]; Homo sapiens, 0.5 h) | IC50 [3, 5] | IC50 [3, 6] | IC50 [3, 7] | other results
3-(Bromomethyl)-1(and 8)-Hydroxy-8(and 1)-Methoxy-9,10-anthraquinone [Va] | 1.7 |  |  |  |  |  | IC50 ([1]; 0.2% DMSO): 7.1 µM; IC50 [3, 4]: 8.8 µM
3-(Dibromomethyl)-1(and 8)-hydroxy-8(and 1)-methoxy-9,10anthraquinone [VIIa] | 217 |  |  |  |  |  | IC50 ([1]; 0.2% DMSO): 0.06 µM; IC50 [2]: 13 µM; IC50 [3, 4]: 4.2e-05 µM
6-(Dibromomethyl)-1-(and 8)-hydroxy-3,8(and) 1,3)-dimethoxy-9,10-anthraquinone [VIIb] | 237 |  |  |  |  |  | IC50 ([1]; 0.2% DMSO): 0.097 µM; IC50 [2]: 23 µM; IC50 [3, 4]: 0.001 µM
COc1cccc2c1C(=O)c1c(OC)cc(CBr)cc1C2=O [IIIa, 3-bromomethyl-1,8-dimethoxy-9,10-anthraquinone] | 2.5 | 4.4 µM | 11 µM | 9.2 µM |  |  | 
COc1cc(OC)c2c(c1)C(=O)c1cc(CBr)cc(OC)c1C2=O [IIIb, 3-bromomethyl-1,6,8-trimethoxy-9,10-anthraquinone] | 0.14 | 84 µM | 12 µM | 0.68 µM |  |  | 
COc1cccc2c1C(=O)c1c(OC)cc(C)cc1C2=O [IIa, 1,8-Dimethoxy-3-methyl-9,10-anthraquinone] |  | 10 µM | 19 µM | 28 µM |  |  | 
Cc1cc(O)c2c(c1)C(=O)c1cccc(O)c1C2=O [IIa] |  |  |  |  | > 390 µM | > 100 µg/mL | 
COc1cc(OC)c2c(c1)C(=O)c1cc(C)cc(OC)c1C2=O [IIb, 1,3,8-Trimethoxy-6-methyl-9,10-anthraquinone] |  | 49 µM | 21 µM | 100 µM |  |  | 
Cc1cc(O)c2c(c1)C(=O)c1cc(O)cc(O)c1C2=O [IIb] |  |  |  |  | > 335 µM | > 100 µg/mL | 
COc1cccc2c1C(=O)c1c(OC)cc(C(Br)Br)cc1C2=O [IVa, 3-Dibromomethyl-1,8-dimethoxy-9,10-anthraquinone] | 4.3 | 2.1 µM | 9 µM | 0.89 µM |  |  | 
COc1cc(OC)c2c(c1)C(=O)c1cc(C(Br)Br)cc(OC)c1C2=O [IVb, 6-(Dibromomethyl)-1,3,8-trimethoxy-9,10-anthraquinone] | 9.7 | 6 µM | 58 µM | 41 µM |  |  | 
CCN(CC)Cc1cc(OC)c2c(c1)C(=O)c1cccc(OC)c1C2=O [IXa-1, 3-[(Diethylamino)methyl]-1,8-dimethoxy-9,10-anthraquinone] | 6.3 | 30 µM | 19 µM | 130 µM | 128 µM | 52.3 µg/mL | 
COc1cccc2c1C(=O)c1c(OC)cc(CN(CCO)CCO)cc1C2=O [IXa-2, 3-[N,N-bis(2-hydroxethyl)amino]methyl-1,8-dimethoxy-9,10-anthraquinone] | 0.03 | 490 µM | 14 µM | > 50 µM | > 49.8 µM | > 21 µg/mL | IC50 [3, 8]: > 50 µM
COc1cccc2c1C(=O)c1c(OC)cc(CN(CCCl)CCCl)cc1C2=O [IXa-3, 3-[N,N-bis(2-chloroethyl)amino]methyl-1,8-dimethoxy-9,10-anthraquinone] | 7.8 |  |  |  |  |  | IC50 [2]: 14 µM; ID50 ([3]; Table I): 5.73 µg/mL (≈ 13.6 µM); IC50 [3, 9]: 12.5 µM; IC50 [3, 4]: 13 µM
CNC(=O)OCCN(CCOC(=O)NC)Cc1cc(OC)c2c(c1)C(=O)c1cccc(OC)c1C2=O [IXa-4] | 0.99 | 9.5 µM | 9.4 µM | 72 µM |  |  | 
CCNCc1cc(OC)c2c(c1)C(=O)c1cccc(OC)c1C2=O [IXa-5, 3-(N-ethylamino)methyl-1,8-dimethoxy-9,10-anthraquinone] | 0.60 | 48 µM | 29 µM | 1.2 µM | 3.59 µM | 1.3 µg/mL | 
COc1cccc2c1C(=O)c1c(OC)cc(CNCCO)cc1C2=O [IXa-6, 3-[N-(2-hydroxyethyl)amino]methyl-1,8-dimethoxy-9,10-anthraquinone] | 0.84 | 55 µM | 46 µM | 140 µM | 142 µM | 53.7 µg/mL | 
CCN(CC)Cc1cc(OC)c2c(c1)C(=O)c1cc(OC)cc(OC)c1C2=O [IXb-1, 3-(N,N-diethylamino)methyl-1,6,8-trimethoxy-9,10-anthraquinone] | 0.53 | 7.9 µM | 4.2 µM |  | 6.91 µM | 2.9 µg/mL | 
COc1cc(OC)c2c(c1)C(=O)c1cc(CN(CCO)CCO)cc(OC)c1C2=O [IXb-2, 3-[N,N-bis(2-hydroxethyl)amino]methyl-1,6,8-trimethoxy-9,10-anthraquinone] | 0.17 | 100 µM | 17 µM | > 27 µM | 27.7 µM | 12.5 µg/mL | IC50 [3, 8]: > 27.6 µM
COc1cc(OC)c2c(c1)C(=O)c1cc(CN(CCCl)CCCl)cc(OC)c1C2=O [IXb-3, 3-[N,N-bis(2-chloroethyl)amino]methyl-1,8,6-trimethoxy-9,10-anthraquinone] | 4.5 |  |  |  |  |  | IC50 ([1]; 0.2% DMSO): 2 µM; IC50 [2]: 8.9 µM; ID50 ([3]; Table I): 1.30 µg/mL (≈ 2.87 µM); IC50 [3, 9]: 2.66 µM; IC50 [3, 4]: 2.7 µM
CCNCc1cc(OC)c2c(c1)C(=O)c1cc(OC)cc(OC)c1C2=O [IXb-5, 3-(N-ethylamino)methyl-1,6,8-trimethoxy-9,10-anthraquinone] | 0.76 | 17 µM | 13 µM | 9.8 µM | 3.67 µM | 1.44 µg/mL | 
COc1cc(OC)c2c(c1)C(=O)c1cc(CNCCO)cc(OC)c1C2=O [IXb-6, 3-[N-(2-hydroxyethyl)amino]methyl-1,6,8-trimethoxy-9,10-anthraquinone] | 0.24 | 110 µM | 26 µM | 17 µM | 12.5 µM | 5.1 µg/mL | 
COc1cc(OC)c2c(c1)C(=O)c1cc(CNCCCl)cc(OC)c1C2=O [IXb-7, 3-[N-(2-chloroethyl)amino]methyl-1,6,8-trimethoxy-9,10-anthraquinone] | 3.1 |  | 18 µM |  |  |  | IC50 ([1]; Homo sapiens): 5.8 µM; IC50 ([3]; Mus musculus, L1210, 72 h, read-out: ID50, M (L1210 cell growth)): 3.2 µM
O=C1c2cccc(O)c2C(=O)c2c(O)cc(C(Br)Br)cc21 [VIIIa, 3-(Dibromomethyl)-1,8-dihydroxy-9,10-anthraquinone] | 15.6 | 2.5 µM | 39 µM | 0.44 µM |  |  | 
COc1cc(O)c2c(c1)C(=O)c1cc(C(Br)Br)cc(O)c1C2=O [VIIIb, 6-(Dibromomethyl)-3-methoxy-1,8-dihydroxy-9,10-anthraquinone] | 579 | 0.19 µM | 110 µM | 0.001 µM |  |  | 
O=C1c2cccc(O)c2C(=O)c2c(O)cc(CBr)cc21 [VIa, 3-bromomethyl-1,8-dihydroxy-9,10-anthraquinone] | 2.3 | 7.1 µM | 16 µM | 8.6 µM |  |  | 
COc1cc(O)c2c(c1)C(=O)c1cc(CBr)cc(O)c1C2=O [VIb, 3-bromomethyl-1,8-dihydroxy-6-methoxy-9,10-anthraquinone] | 13.6 | 25 µM | 340 µM | 59 µM |  |  | 
O=C1c2cccc(O)c2C(=O)c2c(O)cc(CN(CCO)CCO)cc21 [XIa-2, 3-[N,N-bis(2-hydroxyethyl)amino] methyl-1,8-dihydroxy-9,10-anthraquinone] | 4.2 | 3.3 µM | 14 µM |  | 5.9 µM | 2.33 µg/mL | 
CNC(=O)OCCN(CCOC(=O)NC)Cc1cc(O)c2c(c1)C(=O)c1cccc(O)c1C2=O [XIa-4] | 0.13 | 210 µM | 28 µM | > 18 µM |  |  | 
